Results published in patent US8906946B2, “TRPM8 receptor antagonists” (Dompe' S.p.A., priority 2011, dated 2014).

Assays:
human TRPM8 [1] = biological target: T1, human TRPM8 (Homo sapiens, UniProt Q7Z2W7); assay: High-throughput FLIPR TETRA calcium fluorescence assay for TRPM8 antagonists in HEK293/hTRPM8 cells; type: cell-based; set-up: expressed in transfected cells; conditions: agonist Cooling Agent 10 at EC80, Ca2+ fluorescence
Description: A functional cell-based assay for the identification of TRPM8 receptor antagonists, optimised to allow high throughput screening at FLIPR^TETRA, was developed in HEK293 cells by stable pure clone selection and functional characterization with a fluorescent calcium sensitive dye.
TRPM8 was cloned into the multiple clonig site of pcDNA3 mammalian expression vector; the obtained construct pcDNA3/hTRPM8 was fully sequence verified and used for the transfection of HEK293 cell line. HEK293 cells stably transfected with TRPM8 gene were maintained in Minimum essential medium. The cells were transfected with the pcDNA3/hTRPM8 vector by electroporation and then selected with medium containing 0.8 mg/ml G418 for 10-15 days.
The following commercial compounds were used as ligands: • Activator: Cooling Agent 10 (Takasago CAS N. 87061-04-9) • Blocker: Capsazepine (SIGMA cat #D—5879)
The experimental activities were performed using FLIPR^TETRA instruments.
HEK293 cells stably transfected with TRPM8 gene were maintained in Minimum essential medium.
The TRPM8 cell line was analysed for the response to a library of compounds using a Ca^2+ mobilization-dependent fluorescence signal in 384 wells microtiter plate format. The analysis was performed using the FLIPR^TETRA (MDC) with the ICCD Camera.
The execution of the assay involved the use of three microtiter plates:
1. Assay plate, containing cells loaded with dye and prepared as follows:
Cells were seeded at 15000 c/well in Poly-D-Lysine coated 384 wells Microtiter Plates in complete medium (25 μl/well).
24 h after seeding, the cell plates were washed with Tyrode assay buffer by the Microplate Washer and 10 μL of Tyrode assay buffer was left in each well.
Cells were then loaded with 10 μL/well of the Fluo-4 NW dye solution by CyBi®-Well pipettor. Each bottle of Fluo4-NW dye (Molecular Probes cat. #F36206, component A) was re-suspended in 8 mL of Tyrode assay buffer and supplemented with 100 μL of water-soluble probenecid (MolecularProbes cat.#F36206, component B).
Dye loaded cell plates were incubated for 1 h at room temperature.
2. Compound Dilution Plate (FIG. 1), containing diluted test compounds, formulated as follows: • Column 1: wells containing Assay Buffer plus DMSO 0.5% final • Column 2: wells alternating Max Signal Control in first injection (Maximum Response: Cooling Agent 10 at EC100, 100 μM) and Min Signal Control in first injection (Assay buffer plus 0.5% DMSO final); • Columns 3-22: wells containing Assay Buffer plus 0.5% DMSO final. To these wells the compounds to be tested were added at 3× concentration. • Column 23: alternating wells of Max Signal Control in second injection (Assay buffer) and Min Signal Control in second injection (Antagonist Capsazepine IC100, 50 μM) in Assay buffer plus 0.5% DMSO final; • Column 24: wells containing Capsazepine (Antagonist) at 8 concentrations in duplicate at final concentrations of […] in Assay buffer plus 0.5% DMSO final.
3. Activator Plate (FIG. 2), containing agonist Cooling Agent 10 at EC80, formulated as follows: • Column 1: Cooling Agent 10 (Agonist) at 8 concentrations dose response in duplicate at final concentrations of […] in Assay buffer; • Columns 2-24: Cooling Agent 10 (Agonist) at EC80 (3 fold concentrated, 20 μM final) in Assay buffer.
The test was carried out according to a procedure comprising the following steps: • 1. The samples contained in the wells of the Compound Plate were added to the corresponding wells of the Assay Plate by the FLIPR^TETRA, thus resulting in the addition in Columns 3-22 of the test compounds at 3× concentration to the cells of the assay plates. No mixing was performed in the assay wells and the signal of the emitted fluorescence was recorded for 300 seconds. • 2.

human TRPM8 [2] = biological target: T1, human TRPM8; assay: FLIPR384 capsazepine antagonist activity on menthol agonist response in selected TRPM8 clone; type: cell-based; set-up: expressed in transfected cells; conditions: FLIPR384, antagonist from 100 nM to 316 μM
Procedure: The experimental activities were performed using FLIPR instruments.
Patch clamp recordings were also obtained in voltage-clamp configuration on HEK/TRPM8 clones in order to verify the receptor pharmacology and to determine the agonist dose-response curve and EC50 value. HEK293 cells were […] having 1.5-2.5 MΩ resistance were used to record currents following drug application. […] No menthol-induced currents were recorded in non transfected HEK293 cells.

T1 sequence (Q7Z2W7 whole entry): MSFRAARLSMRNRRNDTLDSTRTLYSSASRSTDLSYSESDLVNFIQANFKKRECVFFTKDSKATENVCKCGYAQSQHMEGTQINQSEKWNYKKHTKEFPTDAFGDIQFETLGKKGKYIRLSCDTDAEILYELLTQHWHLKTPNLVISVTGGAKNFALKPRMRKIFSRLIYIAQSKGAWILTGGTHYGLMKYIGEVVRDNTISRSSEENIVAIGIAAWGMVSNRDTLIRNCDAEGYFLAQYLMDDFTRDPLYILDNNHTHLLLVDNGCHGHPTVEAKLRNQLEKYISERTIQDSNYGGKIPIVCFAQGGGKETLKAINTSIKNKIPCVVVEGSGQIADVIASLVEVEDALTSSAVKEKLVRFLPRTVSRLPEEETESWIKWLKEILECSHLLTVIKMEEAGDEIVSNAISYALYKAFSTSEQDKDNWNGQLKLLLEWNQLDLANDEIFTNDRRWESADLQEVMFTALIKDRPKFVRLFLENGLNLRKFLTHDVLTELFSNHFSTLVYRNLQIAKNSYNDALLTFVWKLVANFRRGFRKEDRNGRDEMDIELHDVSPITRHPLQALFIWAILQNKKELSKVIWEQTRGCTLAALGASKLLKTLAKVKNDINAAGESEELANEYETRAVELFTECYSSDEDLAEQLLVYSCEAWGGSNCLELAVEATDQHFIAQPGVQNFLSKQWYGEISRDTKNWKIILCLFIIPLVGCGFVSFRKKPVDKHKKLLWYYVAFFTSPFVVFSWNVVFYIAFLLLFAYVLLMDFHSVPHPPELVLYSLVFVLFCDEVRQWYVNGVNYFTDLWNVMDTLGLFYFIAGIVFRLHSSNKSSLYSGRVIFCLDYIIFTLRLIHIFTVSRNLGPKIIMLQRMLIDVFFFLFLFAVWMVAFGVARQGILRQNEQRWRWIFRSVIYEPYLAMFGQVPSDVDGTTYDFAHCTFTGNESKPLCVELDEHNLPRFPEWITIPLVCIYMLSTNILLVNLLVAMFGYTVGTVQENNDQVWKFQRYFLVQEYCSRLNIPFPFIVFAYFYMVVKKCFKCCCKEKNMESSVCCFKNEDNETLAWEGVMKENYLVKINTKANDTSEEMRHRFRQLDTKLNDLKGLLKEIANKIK

SMILES	IC50 (human TRPM8 [1]) [µM]	IC50 (human TRPM8 [2]) [µM]
CC(C)(COc1ccc2ccccc2c1Cl)NCc1ccccn1 [Compound 13, 1-[(1-chloronaphthalen-2-yl)oxy]-2-methyl-N-(pyridin-2-ylmethyl)propan-2-amine]	< 10	
Cn1cccc1CNC(C)(C)COc1ccc2ccccc2c1Cl [Compound 14, 1-[(1-chloronaphthalen-2-yl)oxy]-2-methyl-N-[(1-methyl-1H-pyrrol-2-yl)methyl]propan-2-amine]	< 10	
O=S(=O)(CCNCc1ccco1)c1ccc2ccccc2c1Cl [Compound 25, 2-[(1-chloronaphthalen-2-yl)sulfonyl]-N-(furan-2-ylmethyl)ethanamine]	< 10	
Clc1c(CCCNCc2ccco2)ccc2ccccc12 [Compound 32, 3-(1-chloronaphthalen-2-yl)-N-(furan-2-ylmethyl)propan-1-amine]	< 10	
Clc1ccc(CNCCCc2ccc3ccccc3c2Cl)s1 [Compound 35, 3-(1-chloronaphthalen-2-yl)-N-[(5-chlorothiophen-2-yl)methyl]propan-1-amine]	< 10	
Fc1c(OCCNCc2ccco2)ccc2ccccc12 [Compound 48, 2-[(1-fluoronaphthalen-2-yl)oxy]-N-(furan-2-ylmethyl)ethanamine]	< 10	
Oc1cc2c(cc1O)CN(C(=S)NCCc1ccc(Cl)cc1)CCC2 [capsazepine, Capsazepine]		20

Other lines, results leading:

IC50 (human TRPM8 [1]) [µM]	IC50 (human TRPM8 [2]) [µM]	SMILES
< 10		Clc1c(OCCNCc2cccs2)ccc2ccccc12 [Compound 5, 2-[(1-chloronaphthalen-2-yl)oxy]-N-(thiophen-2-ylmethyl)ethanaminium]
< 10		Clc1c(OCCNCc2ccccn2)ccc2ccccc12 [Compound 6, 2-[(1-chloronaphthalen-2-yl)oxy]-N-(pyridin-2-ylmethyl)ethanaminium]
< 10		CC(C)(COc1ccc2ccccc2c1Cl)NCc1ccco1 [Compound 8, 1-[(1-chloronaphthalen-2-yl)oxy]-N-(furan-2-ylmethyl)-2-methylpropan-2-amine]
< 10		Cc1ccc(CNCCCc2ccc3ccccc3c2Cl)o1 [Compound 33, 3-(1-chloronaphthalen-2-yl)-N-[(5-methylfuran-2-yl)methyl]propan-1-amine]
< 10		Clc1ccc(CNCCCc2ccc3ccccc3c2Cl)o1 [Compound 34, N-[(5-chlorofuran-2-yl)methyl]-3-(1-chloronaphthalen-2-yl)propan-1-amine]
< 10		Fc1c(OCCNCc2cccs2)ccc2ccccc12 [Compound 52, 2-[(1-fluoronaphthalen-2-yl)oxy]-N-(thiophen-2-ylmethyl)ethanamine]
< 10		Fc1c(OCCNCc2ccccn2)ccc2ccccc12 [Compound 53, 2-[(1-fluoronaphthalen-2-yl)oxy]-N-(pyridin-2-ylmethyl)ethanamine]
< 10		N#Cc1ccc2c(Cl)c(OCCNCc3ccccn3)ccc2c1 [Compound 55, 5-chloro-6-{2-[(pyridin-2-ylmethyl)amino]ethoxy}naphthalene-2-carbonitrile]
< 10		N#Cc1ccc2c(Cl)c(OCCNCc3cccs3)ccc2c1 [Compound 60, 5-chloro-6-{2-[(thiophen-2-ylmethyl)amino]ethoxy}naphthalene-2-carbonitrile]
